The target in one assay is T1, TRPC5 channel (Homo sapiens, UniProt Q9UL62).
T1 construct: expressed in transfected cells; host or cells: HEK293 TREx (inducible expression)
T1 sequence (Q9UL62 1-973): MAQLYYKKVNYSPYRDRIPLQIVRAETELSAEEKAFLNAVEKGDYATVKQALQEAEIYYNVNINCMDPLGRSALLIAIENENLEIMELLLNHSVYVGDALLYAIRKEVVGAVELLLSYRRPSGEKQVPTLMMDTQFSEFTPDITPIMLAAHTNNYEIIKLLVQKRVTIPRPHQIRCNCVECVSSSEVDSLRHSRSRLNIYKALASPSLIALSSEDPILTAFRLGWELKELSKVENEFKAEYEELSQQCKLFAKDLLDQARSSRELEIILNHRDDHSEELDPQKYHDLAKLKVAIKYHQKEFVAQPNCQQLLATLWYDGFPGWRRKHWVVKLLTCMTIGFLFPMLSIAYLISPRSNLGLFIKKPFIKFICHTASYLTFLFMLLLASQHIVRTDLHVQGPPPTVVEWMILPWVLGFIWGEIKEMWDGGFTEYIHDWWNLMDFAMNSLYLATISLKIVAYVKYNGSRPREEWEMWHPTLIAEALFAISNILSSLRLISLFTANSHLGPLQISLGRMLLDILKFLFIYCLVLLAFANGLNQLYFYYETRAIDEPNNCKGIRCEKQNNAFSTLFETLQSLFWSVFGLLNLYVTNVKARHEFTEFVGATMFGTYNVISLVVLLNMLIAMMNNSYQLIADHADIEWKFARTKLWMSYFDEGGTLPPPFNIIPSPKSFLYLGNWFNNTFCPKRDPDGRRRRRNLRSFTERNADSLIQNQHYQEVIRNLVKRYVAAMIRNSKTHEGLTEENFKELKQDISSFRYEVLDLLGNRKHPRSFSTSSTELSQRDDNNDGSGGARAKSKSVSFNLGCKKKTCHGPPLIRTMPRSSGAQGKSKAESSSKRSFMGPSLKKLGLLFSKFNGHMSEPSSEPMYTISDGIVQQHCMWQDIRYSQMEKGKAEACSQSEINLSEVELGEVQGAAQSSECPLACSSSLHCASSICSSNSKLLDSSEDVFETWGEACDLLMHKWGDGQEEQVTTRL
The experiment in a line: Assay A: Determination of TRPC5-inhibition (whole-cell patch clamp). It counts as cell-based. Conditions: LaCl3-activated current. The source says: Assay A: Determination of TRPC5-Inhibition
Patch clamp experiments permit the detection of currents through the TRPC5 channel in a cell line. In normal whole-cell patch clamp recordings, a glass electrode is brought into contact with a single cell and a high-resistance (gigaohm) seal is established with the cell membrane. The membrane is then ruptured to achieve the whole-cell configuration, permitting control of the voltage of the cell membrane and measurement of currents flowing across the membrane using the amplifier attached to the electrode and resulting in the replacement of cytoplasm with the pipette solution. A perfusion system permits control of the extracellular solution, including the addition of blockers and activators of the current. The current can be activated by including 1.4 μM free Ca2+ in the pipette (intracellular) solution, and 80 μM LaCl3 in the extracellular solution.
TRPC5 cells were induced 20-48 hours, removed from growth plates, and replated at low density (to attain good single-cell physical separation) on glass coverslips for measurement. In some cases, cells were grown in low density overnight on glass coverslips. Patch clamp recordings were made in the whole-cell mode with a holding potential of −40 mV. Every 5 seconds, a voltage ramp was applied from −120 to +100 mV, 400 ms in duration. Currents elicited were quantified at −80 mV and +80 mV. The internal solution consisted of 140 mM cesium aspartate, 10 mM HEDTA, 2 mM CaCl2, 2.27 mM MgCl2 and 10 mM HEPES, pH 7.2, with 1,400 nM calculated free Ca2+. The external solution consisted of 150 mM NaCl, 4.5 mM 15 KCl, 1 mM MgCl2, 2 mM CaCl2, 10 mM HEPES, 10 mM glucose, 1 mM EGTA, pH 7.4. Upon addition of LaCl3, TRPC5 current was induced only in TRPC5-expressing cells and not in parental HEK293 TREx cells. Removal of the LaCh stimulus causes most of the current to go away. Potential blockers were tested for ability to block both inward and outward currents in the continued presence of LaCl3.
IC50 of a compound of the invention was estimated by testing the compound 500 nM. […] Compounds blocking 50% or more at 500 nM are retested at multiple concentrations, and the % block is fitted by standard equations to determine IC50 accurately, using a ⅚ point concentration-response experiment.
(The patch-clamp technique gives a direct electrical read-out from membranes.)

The target of another assay is T2, hERG channel (Homo sapiens, UniProt Q12809).
T2 construct: expressed in transfected cells
Briefly: Assay B: Determination of hERG-inhibition (patch-clamp). It counts as cell-based. Conditions: patch-clamp per Rast and Guth 2014. As to the method: Assay B: Determination of hERG-Inhibition
hERG-channel inhibition was determined as described in Rast G, Guth B D, Solubility assessment and on-line exposure confirmation in a patch-clamp assay for hERG (human ether-a-go-go-related gene) potassium channel inhibition, J Pharmacol Toxicol Methods. 2014 September-October; 70(2):182-7.
A general note: Block of hERG is tested as a sign of cardiac risk.

Where [1] appears, read: compounds of the present invention, TRPC5-expressing HEK293 TREx cells.
Where [2] appears, read: compounds of the present invention.
Where [3] appears, read: compounds of WO2014/143799, TRPC5-expressing HEK293 TREx cells.

Entries after “also recorded” stand apart in the source; their conditions may differ. Bounds are passed on as bounds.

Broadly, the IC50 is the concentration that inhibits the measured activity by half. Higher therefore signals lower potency.

T2 sequence (Q12809 whole entry): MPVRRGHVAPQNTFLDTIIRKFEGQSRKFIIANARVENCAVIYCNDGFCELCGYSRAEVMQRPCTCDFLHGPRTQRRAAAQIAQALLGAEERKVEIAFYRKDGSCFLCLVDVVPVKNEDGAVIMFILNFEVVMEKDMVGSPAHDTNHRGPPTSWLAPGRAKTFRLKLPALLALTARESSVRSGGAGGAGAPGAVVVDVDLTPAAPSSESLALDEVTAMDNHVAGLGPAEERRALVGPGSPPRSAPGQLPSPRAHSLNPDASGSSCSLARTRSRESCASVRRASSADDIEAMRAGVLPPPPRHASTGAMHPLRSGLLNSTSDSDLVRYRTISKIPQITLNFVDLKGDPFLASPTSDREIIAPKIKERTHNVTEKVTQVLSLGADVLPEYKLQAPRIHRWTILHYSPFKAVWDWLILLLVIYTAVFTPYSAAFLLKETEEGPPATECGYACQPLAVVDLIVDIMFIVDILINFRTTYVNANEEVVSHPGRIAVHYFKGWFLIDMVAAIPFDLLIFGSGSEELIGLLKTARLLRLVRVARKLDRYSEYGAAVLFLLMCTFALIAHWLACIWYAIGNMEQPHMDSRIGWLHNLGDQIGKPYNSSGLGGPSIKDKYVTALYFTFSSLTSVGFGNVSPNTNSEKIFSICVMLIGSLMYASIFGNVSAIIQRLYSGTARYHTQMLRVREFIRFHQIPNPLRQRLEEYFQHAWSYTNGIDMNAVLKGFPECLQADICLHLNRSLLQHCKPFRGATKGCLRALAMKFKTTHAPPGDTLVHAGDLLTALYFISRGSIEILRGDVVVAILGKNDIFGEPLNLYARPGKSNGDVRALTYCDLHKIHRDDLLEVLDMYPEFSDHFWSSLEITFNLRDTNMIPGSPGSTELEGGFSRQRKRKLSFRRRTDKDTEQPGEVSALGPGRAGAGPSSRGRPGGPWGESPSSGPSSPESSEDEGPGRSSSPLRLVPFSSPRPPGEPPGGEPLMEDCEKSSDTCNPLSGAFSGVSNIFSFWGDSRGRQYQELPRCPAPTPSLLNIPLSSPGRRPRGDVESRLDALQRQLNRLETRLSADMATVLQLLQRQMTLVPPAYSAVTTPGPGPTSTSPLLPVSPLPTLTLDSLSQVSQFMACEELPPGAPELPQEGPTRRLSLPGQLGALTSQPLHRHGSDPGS

Regarding `CC(C)n1c(=O)n(CCCO)c(=O)c2c1nc(-c1cccnc1OC[C@H]1CC1(F)F)n2Cc1ccc(F)cc1` (single isomer, unassigned) [Example 21], the IC50 against TRPC5 channel (setting [1]) is less than 0.01 µM; against hERG channel (setting [2]), greater than 10 µM.

For `CC(C)n1c(=O)n(CCCO)c(=O)c2c1nc(-c1cccnc1OC[C@@H]1CC1(F)F)n2Cc1ccc(F)cc1` (single isomer, unassigned) [Example 22], the IC50 at TRPC5 channel (setting [1]) is less than 0.01 µM; at hERG channel (setting [2]), greater than 10 µM.

On to `Cn1c(=O)n(CCCO)c(=O)c2c1nc(Oc1cccc(Cl)c1)n2Cc1cccc(Cl)c1` [Compound ID 260 in WO2014/143799, reference compound], for which, at TRPC5 channel (setting [3]), the “Assay A TRPC5 inhibition” value is “potent TRPC5-inhibition” and the IC50 is less than 0.01 µM. Moreover, on hERG channel (compounds of WO2014/143799), the “Assay B hERG inhibition” value is “low μM range” and the IC50 was 1.9 µM.

With `COc1ccccc1-c1nc2c(c(=O)n(CCCO)c(=O)n2C)n1Cc1ccc(F)cc1` [Compound ID 415 in WO2014/143799, reference compound], the “Assay A TRPC5 inhibition” value on TRPC5 channel (setting [3]) is “agonism (activation); also recorded: Agonist”. Also, the IC50 at hERG channel (compounds of WO2014/143799) is greater than 10 µM.

Regarding `CC(C)n1c(=O)n(CCCO)c(=O)c2c1nc(-c1cccnc1OCC1CC1)n2Cc1cc(F)cc(F)c1` [Example 1], the IC50 against TRPC5 channel (setting [1]) was less than 0.01 µM; against hERG channel (setting [2]), greater than 10 µM.

For the compound `CC(C)n1c(=O)n(CCCO)c(=O)c2c1nc(-c1cccnc1OCC1CC1)n2Cc1ccc(C(F)(F)F)cc1` [Example 2], the IC50 at TRPC5 channel (setting [1]) is less than 0.01 µM; on hERG channel (setting [2]), 8.3 µM.

As for `CC(C)n1c(=O)n(CCCO)c(=O)c2c1nc(-c1cccnc1OCC1CC1)n2Cc1ccc(F)c(F)c1` [Example 3], the half-inhibitory concentration (IC50) was less than 0.01 µM against TRPC5 channel (setting [1]) and greater than 10 µM at hERG channel (setting [2]).

In the case of `Cc1ccc(Cn2c(-c3cccnc3OCC3CC3)nc3c2c(=O)n(CCCO)c(=O)n3C(C)C)cc1` [Example 4], the figures for the IC50 at TRPC5 channel (setting [1]) and at hERG channel (setting [2]) were less than 0.01 µM and greater than 10 µM, respectively.

Regarding `CC(C)n1c(=O)n(CCCO)c(=O)c2c1nc(-c1cccnc1OCC1CC1)n2Cc1ccc(Cl)cc1` [Example 5], the IC50 is less than 0.01 µM against TRPC5 channel (setting [1]) and greater than 10 µM at hERG channel (setting [2]).

Regarding `CC(C)n1c(=O)n(CCCO)c(=O)c2c1nc(-c1cccnc1OCC1CC1)n2Cc1ccc(F)cc1` [Example 6], the IC50 against TRPC5 channel (setting [1]) was less than 0.01 µM; against hERG channel (setting [2]), greater than 10 µM.

Consider `CC(C)n1c(=O)n(CCCO)c(=O)c2c1nc(-c1ccc(F)nc1OCC1CC1)n2Cc1ccc(F)cc1` [Example 7], for which the values for the IC50 on TRPC5 channel (setting [1]) and at hERG channel (setting [2]) were less than 0.01 µM and greater than 10 µM, respectively.

With `CC(C)n1c(=O)n(CCCO)c(=O)c2c1nc(-c1cccnc1OCC1CC1)n2Cc1ccc(Cl)cn1` [Example 8], the IC50 on TRPC5 channel (setting [1]) was less than 0.01 µM; at hERG channel (setting [2]), greater than 10 µM.

In the case of `CC(C)n1c(=O)n(CCCO)c(=O)c2c1nc(-c1nccnc1OCC1CC1)n2Cc1ccccc1` [Example 9], the IC50 against TRPC5 channel (setting [1]) was less than 0.01 µM; against hERG channel (setting [2]), greater than 10 µM.

On to `CC(C)n1c(=O)n(CCCO)c(=O)c2c1nc(-c1ccc(F)nc1OCC1CC1)n2Cc1ccccc1` [Example 10], for which the IC50 at TRPC5 channel (setting [1]) was less than 0.01 µM; on hERG channel (setting [2]), greater than 10 µM.

Consider `CCn1c(=O)n(CCCO)c(=O)c2c1nc(-c1nccnc1OCC1CC1)n2Cc1ccccc1` [Example 11], for which the values for the IC50 on TRPC5 channel (setting [1]) and at hERG channel (setting [2]) were less than 0.01 µM and greater than 10 µM, respectively.

In the case of `Cn1c(=O)n(CCCO)c(=O)c2c1nc(-c1nccnc1OCC1CC1)n2Cc1ccc(Cl)cc1` [Example 12], the IC50 on TRPC5 channel (setting [1]) is less than 0.01 µM; on hERG channel (setting [2]), greater than 10 µM.

On to `Cc1ccc(-c2nc3c(c(=O)n(CCCO)c(=O)n3C(C)C)n2Cc2ccccc2)c(OCC2CC2)n1` [Example 13], for which the IC50 against TRPC5 channel (setting [1]) is less than 0.01 µM; against hERG channel (setting [2]), greater than 10 µM.

For `Cc1nc(OCC2CC2)c(-c2nc3c(c(=O)n(CCCO)c(=O)n3C(C)C)n2Cc2ccc(F)cc2)cc1F` [Example 14], the figures for the IC50 at TRPC5 channel (setting [1]) and against hERG channel (setting [2]) were less than 0.01 µM and 5.8 µM, respectively.

As to `Cc1nc(OCC2CC2)c(-c2nc3c(c(=O)n(CCCO)c(=O)n3C(C)C)n2Cc2ccccc2)cc1F` [Example 15], the figures for the IC50 on TRPC5 channel (setting [1]) and against hERG channel (setting [2]) were less than 0.01 µM and 5.8 µM, respectively.

Turning to `CC(C)n1c(=O)n(CCCO)c(=O)c2c1nc(-c1cc(F)cnc1OCC1CC1)n2Cc1ccccc1` [Example 16], the IC50 was less than 0.01 µM at TRPC5 channel (setting [1]) and greater than 10 µM against hERG channel (setting [2]).

`CC(C)n1c(=O)n(CCCO)c(=O)c2c1nc(-c1cc(F)cnc1OCC1CC1)n2Cc1ccc(F)cc1` [Example 17]: the IC50 against TRPC5 channel (setting [1]) is less than 0.01 µM; against hERG channel (setting [2]), greater than 10 µM.

Regarding `CC(C)n1c(=O)n(CCCO)c(=O)c2c1nc(-c1cccnc1OCC1CC1)n2Cc1ccccc1` [Example 18], the results for the IC50 against TRPC5 channel (setting [1]) and against hERG channel (setting [2]) were less than 0.01 µM and greater than 10 µM, respectively.

As to `CC(C)n1c(=O)n(CCCO)c(=O)c2c1nc(-c1cccnc1OC[C@@H]1CC1(F)F)n2Cc1ccccc1` [Example 19], the IC50 at TRPC5 channel (setting [1]) is less than 0.01 µM; on hERG channel (setting [2]), greater than 10 µM.

Regarding `CC(C)n1c(=O)n(CCCO)c(=O)c2c1nc(-c1cccnc1OC[C@H]1CC1(F)F)n2Cc1ccccc1` [Example 20], the figures for the IC50 against TRPC5 channel (setting [1]) and against hERG channel (setting [2]) were less than 0.01 µM and greater than 10 µM, respectively.

For `CC(C)n1c(=O)n(CC[C@@H](C)O)c(=O)c2c1nc(-c1cccnc1OCC1CC1)n2Cc1ccccc1` [Example 23], the IC50 at TRPC5 channel (setting [1]) is less than 0.01 µM; at hERG channel (setting [2]), greater than 10 µM.

Turning to `CC(C)n1c(=O)n(CC[C@@H](C)O)c(=O)c2c1nc(-c1cccnc1OCC1CC1)n2Cc1ccc(F)cc1` [Example 24], the results for the IC50 against TRPC5 channel (setting [1]) and on hERG channel (setting [2]) were less than 0.01 µM and greater than 10 µM, respectively.

For the compound `CC(C)n1c(=O)n(CC[C@@H](C)O)c(=O)c2c1nc(-c1cccnc1OCC1CC1)n2Cc1ccc(Cl)cc1` [Example 25], the results for the IC50 against TRPC5 channel (setting [1]) and at hERG channel (setting [2]) were less than 0.01 µM and 7.6 µM, respectively.
